# Patent US7666901B2, “Analogs of 17-hydroxywortmannin as PI3K inhibitors” (Wyeth, priority 2004, dated 2010)
# Like-named read-outs stand apart in the source and are kept apart here.
# Columns and labels:
# [1] = test system: MDA435 (human breast adenocarcinoma); assay: Cell proliferation (MTS) assay, MDA435; assay type: cell-based; conditions: three days treatment
# How it was run: (§1)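 Cells plated at about 3000 per well in RPMI-1640/10% FBS were dosed with compound one day later. Viability was read by MTS conversion (absorbance 490 nm, 1–2 h) three days after treatment began. Effect is expressed as percent of vehicle-treated growth on the same plate.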
# [2] = test system: PI3K; conditions: cited from earlier work
# [3] = test system: T1, PI3K; assay: Fluorescence polarization assay for PI3K; assay type: biochemical; conditions: for PI3K FP IC50: Table 1
# T1 construct: PI3K FP IC50
# How it was run: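 PI3K was preincubated with compound at 1% DMSO final, then reacted with PIP2/ATP substrate for 30-60 min. The reaction was stopped with a detector mix giving 10 nM red probe and 70 nM GST-GRP. Fluorescence polarization (mP, Tamra filters) was read 30-90 min later and IC50 determined.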
# [4] = test system: DU145 (human prostate carcinoma/lymphocytic leukemia); assay: Cell proliferation (MTS) assay, DU145; assay type: cell-based; conditions: three days treatment
# How it was run: as §1
# [5] = test system: MDA468 (human breast cancer cell); assay: Cell proliferation (MTS) assay, MDA468; assay type: cell-based; conditions: three days treatment
# How it was run: as §1
# [6] = test system: C3H mammary model; conditions: cited from earlier work
# [7] = test system: phosphor-AKT (S473) in Rat1 cells; assay: Rat1-IGF1 assay (IGF-1 induced phospho-AKT immunoblot); assay type: cell-based, rat
# How it was run: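 After 24 h serum starvation, Rat1 cells got vehicle or varying 17-HWT concentrations for 2 hours, then IGF-1 (100 ng/mL) for 30 minutes. Lysates immunoblotted for phospho-AKT (S473) and total AKT.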
# [8] = biological target: T2, Human TOR (Homo sapiens, UniProt P42345); assay: Human TOR (mTOR) kinase assay, DELFIA format; assay type: biochemical
# T2 construct: FLAG
# How it was run: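 Purified FLAG-TOR (800 ng/mL) phosphorylates His6-S6K ([…]) with […] ATP in Hepes pH 7.4 buffer containing MnCl2, 2 h at room temperature. Phospho-Thr389 S6K detected by DELFIA using Europium-labelled anti-P(T389)-p70S6K antibody; enzyme inhibition calculated from signal.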
# [9] = test system: LNCaP (human prostate carcinoma); assay: Cell proliferation (MTS) assay, LNCaP; assay type: cell-based; conditions: three days treatment
# How it was run: as §1
# [10] = test system: phosphorylated Her2/Neu, ERK and AKT pathway markers in MDA361-DYT2; assay: Western blot analysis of pathway markers, MDA361-DYT2; assay type: cell-based, human; conditions: 0.1 μg/ml
# Experimental: Cells are plated in 6-well culture plates. 24 hr later, cells are treated with indicated single agents or combined agents for 16 hr in full growth media. Protein lysates are prepared for Western blot analysis as previously described in Yu, K., et al., Endocr. Relat. Cancer. 2001 September :8(3) 249-58.
# [11] = test system: HER2/Neu-overexpressing MDA361-DYT2 breast tumor cells; assay: Tumor cell growth assay, HKI-272 and combination, MDA361-DYT2; assay type: cell-based, human; conditions: in vitro and in vivo
# Experimental: Human tumor cell are all obtained from ATCC, and are cultured using standard cell culture methods. Cells are plated in 96-well culture plates at 1000 to 3000 cells per well. One day following plating, cells are treated with various doses of PI3K inhibitor Compound 4 or Compound 5 alone or with a low constant dose of MEK inhibitor 2-(2-chloro-4-iodoanilino)-N-(cycloprorylmethoxy-3,4-difluobenzamide) (1 μg/ml) or UO126 (5 μg/ml). UO126 is also known as 1,4-diamino-2,3-dicyano-1,4-bis[2-aminophenylthio]butadiene. In some experiments, cells are treated alone with various doses of the MEK inhibitor (2-(2-chloro-4-iodoanilino)-N-(cycloprorylmethoxy-3,4-difluobenzamide)), or HER2/neu inhibitor HKI-272, or mTOR inhibitor CCI-779, or with a low constant dose of Compound 4 (0.1 μg/ml). […] Three days after drug treatment, viable cell densities are determined by metabolic conversion (by viable cells) of the dye MTS, an established cell proliferation assay. […] The MTS assay results are read in a 96-well plate reader by measuring absorbance at 490 nm. The effect of each treatment is calculated as percent of control growth relative to the vehicle DMSO-treated cells grown in the same culture plate. […]
Compound,MDA435 IC50 ([1]; Table 1),PI3K FP IC50 [3],DU145 IC50 ([4]; Table 1),MDA468 IC50 ([5]; Table 1),Rat1-IGF1 IC50 ([7]; Table 1),TOR IC50 ([8]; Table 1),LNCaP IC50 ([9]; Table 1),further results
"COC[C@H]1OC(=O)c2coc3c2[C@@]1(C)C1=C(C3=O)[C@@H]2CC[C@H](O)[C@@]2(C)C[C@H]1OC(C)=O [Compound 17-OH-Wort, 17β-Hydroxywortmannin, reference compound]",>15 µg/mL,0.0034 µg/mL,15 µg/mL,2.3 µg/mL,<0.01 µg/mL,0.076 µg/mL,1 µg/mL,"MDA435 IC50 ([1]; Table 2): 20 µg/mL; increase in activity relative to wortmannin ([2]; PI3K, literature): 10 fold; IC50 ([2]; literature value): 0.5 nM; IC50 ([3]; Table 2): 2 nM; DU145 IC50 ([4]; Table 2): 13 µg/mL; MDA468 IC50 ([5]; Table 2): 3 µg/mL; toxicity ([6]; dose of 1.0 mg/kg): toxicity; antitumor activity ([6]; dose of 0.5 (mg/kg)): no inhibition; Rat1-IGF1 IC50 ([7]; Table 2): <0.01 µg/mL; TOR IC50 ([8]; Table 2): 0.059 µg/mL; LNCaP IC50 ([9]; Table 2): 0.3 µg/mL"
"CCOc1cc2ncc(C#N)c(Nc3ccc(OCc4ccccn4)c(Cl)c3)c2cc1NC(=O)/C=C/CN(C)C [HKI-272, (E)-N-{4-[3-chloro-4-(2-pyridinylmethoxy)anilino]-3-cyano-7-ethoxy-6-quinolinyl}-4-(dimethylamino)-2-butenamide]",,,,,,,,effect on AKT pathway markers [10]: little effect; phosphorylated forms of Her2/Neu and ERK [10]: completely inhibited; sensitivity of MDA361-DYT2 to single agent [11]: resistant
"(1E,4S,4aR,5R,6aS,7S)-7,11-dihydroxy-4-(methoxymethyl)-4a,6a-dimethyl-1-{[methyl(1-methylpyrrolidin-3-yl)amino]methylene}-2,10-dioxo-1,2,4,4a,5,6,6a,7,8,9,9a,10-dodecahydroindeno[4,5-h]isochromen-5-yl acetate [Compound 6]",>15 µg/mL,0.07 µg/mL,13 µg/mL,2.01 µg/mL,0.02 µg/mL,0.66 µg/mL,0.55 µg/mL,
